≈ marks a conversion by molar mass, not a printed value. Read-outs that look alike come from different tables or passages of the source.
Assays:
[1] = system: E. coli; assay: Minimum inhibitory concentration, E. coli; assay type: cell-based; conditions: Escherichia coli
[2] = system: Proteus mirabilis; assay: Minimum inhibitory concentration, Proteus mirabilis; assay type: cell-based
[3] = system: Proteus vulgaris; assay: Minimum inhibitory concentration, Proteus vulgaris; assay type: cell-based
[4] = system: Klebsiella aeruginosa; assay: Minimum inhibitory concentration, Klebsiella aeruginosa; assay type: cell-based
[5] = system: S. typhimurium; assay: Minimum inhibitory concentration, S. typhimurium; assay type: cell-based; conditions: Salmonella enterica
[6] = system: E. coli; assay: Mice infected with E. coli, CD50 (Tables I, II, IV); assay type: in vivo; conditions: Escherichia coli
Method: (§1) Typical of the compounds of the class are very active antimicrobial agents, especially against gram-negative bacteria, in particular E. coli. For instance, the following values of the CD50 were determined on administering the listed compounds of formula I, in which R1 is as defined in the following Table I, Antimicrobial Activity, R2 and R3 are hydrogen and wherein R4 is sodium to mice infected with the bacteria shown.
(§2) CD50 = Dose in mg of compound/kg of mouse body weight which cures th
(§3) infection in 50% of the animals

[7] = system: B. proteus; assay: Mice infected with B. proteus, CD50; assay type: in vivo; conditions: Mus musculus
Method: as §1, §2, §3
(§4) The compounds of the invention also show effectiveness against other gram-negative bacteria.

[8] = system: Klebsiella pneumoniae; assay: Mice infected with Klebsiella pneumoniae, CD50; assay type: in vivo
Method: as §1, §2, §3, §4

[9] = system: Proteus vulgaris; assay: Mice infected with Proteus vulgaris, CD50 (Table II); assay type: in vivo; conditions: read-out: DC50 (the source's name)
Source text: as §2, §3

[10] = system: Proteus mirabilis; assay: Mice infected with Proteus mirabilis, CD50 (Table II); assay type: in vivo; conditions: read-out: DC50 (the source's name)
Source text: as §2, §3

[11] = system: Klebsiella aeruginosa; assay: Mice infected with Klebsiella aeruginosa, CD50 (Table II); assay type: in vivo; conditions: read-out: DC50 (the source's name)
Source text: as §2, §3

[12] = po, Table I, mice infected with E. coli, p.o., R4 = sodium, read-out: CD50 (the source's name)
[13] = sc, Table I, mice infected with E. coli, s.c., R4 = sodium, read-out: CD50 (the source's name)
[14] = sc, Table II, infected mice, E. coli, s.c., read-out: DC50 (the source's name)

Row | Structure (SMILES) | MIC [1] | MIC [2] | MIC [3] | MIC [4] | MIC [5] | ED50 [6, 12] | ED50 [6, 13] | also measured
1 | Cc1ccc2c(c1)C=NN(S(=O)(=O)CC(C)C)B2O | 2 µg/mL (≈ 7.14 µM) | 8 µg/mL (≈ 28.6 µM) | 4 µg/mL (≈ 14.3 µM) | 2 µg/mL (≈ 7.14 µM) | 8 µg/mL (≈ 28.6 µM) | – | – | –
2 | Nc1ccc(S(=O)(=O)N2N=Cc3ccccc3B2O)c(Cl)c1 [1-hydroxy-2(2'-chloro-4'-amino-phenylsulfonyl) benzo-2,3,1-diazaborine, reference compound] | – | – | – | – | – | – | – | ED50 ([6]; po, Table IV, comparative, E. coli, p.o., read-out: CD50 (the source's name)): 36 mg/kg; ED50 ([6]; sc, Table IV, comparative, E. coli, s.c., read-out: CD50 (the source's name)): 13.5 mg/kg
3 | CCCCCS(=O)(=O)N1N=Cc2ccccc2B1O [(CH2)4CH3, H] | 32 µg/mL (≈ 114 µM) | 32 µg/mL (≈ 114 µM) | 32 µg/mL (≈ 114 µM) | 8 µg/mL (≈ 28.6 µM) | 16 µg/mL (≈ 57.1 µM) | – | – | –
4 | O=S(=O)(CCCCl)N1N=Cc2cc(F)ccc2B1O [CH2CH2CH2 Cl, F] | 16 µg/mL (≈ 52.5 µM) | 16 µg/mL (≈ 52.5 µM) | 8 µg/mL (≈ 26.3 µM) | 8 µg/mL (≈ 26.3 µM) | 4 µg/mL (≈ 13.1 µM) | – | – | –
5 | CCc1ccc2c(c1)C=NN(S(=O)(=O)CCCCl)B2O [CH2CH2CH2Cl, C2 H5] | 4 µg/mL (≈ 12.7 µM) | 2 µg/mL (≈ 6.36 µM) | 4 µg/mL (≈ 12.7 µM) | 2 µg/mL (≈ 6.36 µM) | 2 µg/mL (≈ 6.36 µM) | – | – | –
6 | CCCS(=O)(=O)N1N=Cc2cc(CC)ccc2B1O [CH2CH2CH3, C2 H5] | 4 µg/mL (≈ 14.3 µM) | 8 µg/mL (≈ 28.6 µM) | 2 µg/mL (≈ 7.14 µM) | 1 µg/mL (≈ 3.57 µM) | 2 µg/mL (≈ 7.14 µM) | – | – | –
7 | CCS(=O)(=O)N1N=Cc2ccccc2B1O [Compound 1] | – | – | – | – | – | 11 mg/kg | 9.8 mg/kg | –
8 | CCCS(=O)(=O)N1N=Cc2ccccc2B1O [Compound 2] | 4 µg/mL (≈ 15.9 µM) | 32 µg/mL (≈ 127 µM) | 32 µg/mL (≈ 127 µM) | 8 µg/mL (≈ 31.7 µM) | 16 µg/mL (≈ 63.5 µM) | 7 mg/kg | 6.7 mg/kg | ED50 ([7]; per oral (p.o.)): 18.7 mg/kg; ED50 ([7]; sc, subcutaneous (s.c.)): 11.7 mg/kg; ED50 ([8]; po): 11.3 mg/kg; ED50 ([8]; sc): 6.75 mg/kg
9 | CC(C)S(=O)(=O)N1N=Cc2ccccc2B1O [Compound 3] | – | – | – | – | – | 12.5 mg/kg | 9.2 mg/kg | –
10 | CCCCS(=O)(=O)N1N=Cc2ccccc2B1O [Compound 4] | – | – | – | – | – | 11.2 mg/kg | 5.85 mg/kg | –
11 | C=CCS(=O)(=O)N1N=Cc2ccccc2B1O [Compound 6] | – | – | – | – | – | 13.2 mg/kg | 13.2 mg/kg | –
12 | O=S(=O)(CCl)N1N=Cc2ccccc2B1O [Compound 7] | – | – | – | – | – | 12.4 mg/kg | 11.8 mg/kg | –
13 | CC(Cl)S(=O)(=O)N1N=Cc2ccccc2B1O (stereo not shown) [Compound 8] | – | – | – | – | – | 17.7 mg/kg | 14.8 mg/kg | –
14 | O=S(=O)(CCCCl)N1N=Cc2ccccc2B1O [Compound 9] | – | – | – | – | – | 22.7 mg/kg | 21.8 mg/kg | –
15 | Cc1ccc2c(c1)C=NN(S(=O)(=O)CCCCl)B2O [Compound 10] | 2 µg/mL (≈ 6.65 µM) | 4 µg/mL (≈ 13.3 µM) | 4 µg/mL (≈ 13.3 µM) | 1 µg/mL (≈ 3.33 µM) | 1 µg/mL (≈ 3.33 µM) | – | – | ED50 ([9]; po): 8.6 mg/kg; ED50 ([9]; sc): 8.4 mg/kg; ED50 ([10]; po): 9.15 mg/kg; ED50 ([10]; sc): 7.45 mg/kg; ED50 ([11]; po): 9.15 mg/kg; ED50 ([11]; sc): 6.95 mg/kg; ED50 ([6]; po, read-out: DC50): 9.8 mg/kg; ED50 [6, 14]: 8.8 mg/kg
16 | CCCS(=O)(=O)N1N=Cc2cc(F)ccc2B1O [Compound 11] | 4 µg/mL (≈ 14.8 µM) | 4 µg/mL (≈ 14.8 µM) | 4 µg/mL (≈ 14.8 µM) | 8 µg/mL (≈ 29.6 µM) | 8 µg/mL (≈ 29.6 µM) | – | – | ED50 ([9]; po): 13.9 mg/kg; ED50 ([9]; sc): 7.45 mg/kg; ED50 ([10]; po): 13.9 mg/kg; ED50 ([10]; sc): 7.45 mg/kg; ED50 ([11]; po): 5.65 mg/kg; ED50 ([11]; sc): 4.25 mg/kg; ED50 ([6]; po, read-out: DC50): 6.95 mg/kg; ED50 [6, 14]: 5.65 mg/kg
17 | CC(C)CS(=O)(=O)N1N=Cc2ccccc2B1O [drawing 2] | – | – | – | – | – | – | – | ED50 ([6]; po, read-out: CD50): 8.85 mg/kg; ED50 ([6]; sc, read-out: CD50): 10.6 mg/kg
18 | CC(C)CS(=O)(=O)N1N=Cc2ccccc2B1O [drawing 4] | 8 µg/mL (≈ 30.1 µM) | 16 µg/mL (≈ 60.1 µM) | 16 µg/mL (≈ 60.1 µM) | 4 µg/mL (≈ 15 µM) | 4 µg/mL (≈ 15 µM) | – | – | –

Source: patent US4199573A, “Diazaborines and drug compositions” (Grunenthal GmbH, priority 1978, dated 1980)
